“Also recorded” adds a separate entry of the source.
Key:
[1] = tested on: hyperthyroidism in rats (TSH, T3, T4, FT3 and FT4 in the bloods); assay: Effect of PBT and THP on serum TSH, T3, T4, FT3, FT4, L-T4 induced hyperthyroidism rats (Experiment 3); format: in vivo, female Sprague-Dawley rats
Description: (§1) The female Sprague-Dawley rats, each weighs 260±15 grams, are divided into 5 groups of 6 rats, each rat being subcutaneously injected (s.c.) with L-T4 300 μg/kg daily for continuous 12 days to induce hyperthyroidism in each rats. […] The control group is treted with saline. After continuous treatment of 10 days as described above, each rat is injected (I.P.) with pentobarbitol 50 mg/kg and narcotized on the eleventh day, and then extracted the arterial blood for measuring concentrations of TSH, T3, T4, FT3 and FT4 in the bloods.

[2] = tested on: blood cholesterol and triglyceride in rats; assay: Effects of THP on blood cholesterol, triglyceride and T4 in L-T4 induced hyperthyroidism rats (Experiment 5); format: in vivo, rats (Sprague-Dawley); conditions: 10 days
Description: as §1

[3] = tested on: TSH, T3, T4, FT3 and FT4 in bloods; assay: Effect of PBT and THP on serum TSH, T3, T4, FT3, FT4, normal rats (Experiment 3); format: in vivo, female Sprague-Dawley rats
Description: The female Sprague-Dawley rats, each weights 270±15 grams, are divided into 5 groups of 6 rats, for following daily treatment for continuous 10 days, except a normal group for control.
On the eleventh days, each rat is injected (I.P.) with pentobarbital 50 mg/kg and narcotized for extracting arterial blood which is settled for 2 hours at room temperature and centrifuged at 2500 rpm for 10 minutes to separate the serum. The concentrations of TSH, T3, T4, FT3 and FT4 in bloods are analyzed by RIA methods. The normal control group is treated with saline and analyzed by the same methods.

[4] = tested on: blood cholesterol and triglyceride in rats; assay: Effects of THP on blood cholesterol, triglyceride and T4 in L-T4 induced hyperthyroidism rats (Experiment 5); format: in vivo, rats (Sprague-Dawley); conditions: 10 days; remark: listed apart in the source
[5] = tested on: thyroid function of normal rats; assay: Effect of dl-tetrahydropalmatine (THP) on thyroid function of normal rats (Experiment 4)
Description: (§2) On the 15th day, each rat is intraperitoneally injected with pentobarbital 50 mg/kg and narcotized. The rat abdominal cavity is cut to take the thyroid out for weighing and for examining pathological section, which is stained with H-E stain to facilitate observation of pathologic changes.
The method of experiment 1 is repeated by daily treating dl-tetrahydropalmatine (THP) 2.5 mg/kg, 5.0 mg/kg and 10 mg/kg (I.P.) respectively for continuous 14 days.

rat thyroid = assay: Effect of each extracted layer of Corydalis on rat thyroid: body and thyroid weight, normal rats (Experiment 1); conditions: 50 mg/kg daily p.o., 14 days, vs control
Description: ICR mice may be used as testing animals in this invention, each having a weight of 18-25 grams. Sprague-Dawley rats each having a weight of 240±10 grams may also be used in this invention.
The mice or rats are placed in a metal cage by feeding 5 mice per group in each cage with solid foods and distilled water at least 1 week before performing the experiment at […] and humidity of 55±5%.
as §2

[6] = tested on: rat thyroid, pituitary and suprarenal gland; assay: Effect of THP on rat thyroid, pituitary and suprarenal gland weight (Experiment 6); format: in vivo, rats (Sprague-Dawley); conditions: PTU, 14 days
thyroid follicle cells = assay: Thyroid pathological section, H-E stain, normal rats (Experiment 1); format: in vivo, female Sprague-Dawley rats; conditions: 50 mg/kg daily p.o., 14 days
[7] = tested on: hyperthyroidism in rats (TSH, T3, T4, free T3 and free T4 in the serum); assay: Serum TSH, T3, T4, FT3, FT4 by RIA, L-T4 induced hyperthyroidism rats (Experiment 2); format: in vivo, female Sprague-Dawley rats
Description: The female Sprague-Dawley rats each having a weight of 250±10 grams are subcutaneously injected (S.C.) for 12 days with a daily dose of 300 μg/kg for each rat to induce hyperthyroidism. […] Then, the rat abdominal cavity is cut to extract arterial blood which is settled for 2 hours at room temperature and is centrifuged at 2500 rpm for 10 minutes for separating the serum.
The concentrations of TSH, T3, T4, free T3 and free T4 in the serum by RIA methods.

[8] = L-T4 induced hyperthyroidism rats, THP 5 mg/kg i.p., 10 days
[9] = hyperthyroidism rats, THP 5 mg/kg, I.P.
[10] = THP 50 mg/kg [sic], i.p., 10 days
[11] = hyperthyroidism rats, THP 2.5 mg/kg i.p.
[12] = hyperthyroidism rats, THP 5 mg/kg i.p.
[13] = hyperthyroidism rats, THP 10.0 mg/kg i.p.
[14] = L-T4 induced hyperthyroidism rats, PTU 5 mg/kg p.o., 10 days
[15] = hyperthyroidism rats, PTU 5.0 mg/kg

COc1cc2c(cc1OC)C1Cc3ccc(OC)c(OC)c3CN1CC2 (racemic) [THP, dl-tetrahydropalmatine]
FT3 [1, 8]: 1.42 ± 0.62 ng/dL
FT4 [1, 8]: 5.27 ± 1.05 ng/dL
T3 [1, 8]: 42.36 ± 4.25 ng/dL
T4 [1, 8]: 4.91 ± 0.17 µg/dL
TSH [1, 8]: 0.77 ± 0.10 μu/ml
effect on T3, T4, FT3 and FT4 (in words, summary) ([1]; hyperthyroidism rats): may markedly decrease the concentration of T3, T4, FT3 and FT4
effect on TSH (in words, summary) ([1]; hyperthyroidism rats): will not influence the TSH concentration in the blood
effect on T3, T4, FT3 and FT4 (in words) [1, 9]: will greatly reduce T3 (P<0.01), T4 (P<0.05), FT3 (P<0.01) and FT4 (P<0.01)
effect on TSH (in words) [1, 9]: no remarkable influence on TSH concentration
pharmacological effect relative to PBT (in words) ([1]; hyperthyroidism rats, THP dosage much smaller than PBT dose): not less than that of the PBT
T4 ([2]; THP 2.5 mg/kg i.p.): 3.3 ± 0.4 µg/dL
T4 ([2]; THP 5 mg/kg i.p.): 3.1 ± 0.5 µg/dL
T4 ([2]; THP 10.0 mg/kg i.p.): 3.2 ± 0.5 µg/dL
FT3 [3, 10]: 1.18 ± 0.01 ng/dL
FT4 [3, 10]: 1.97 ± 0.14 ng/dL
T3 [3, 10]: 49.05 ± 2.45 µg/dL
T4 [3, 10]: 2.32 ± 0.25 µg/dL
TSH [3, 10]: 1.89 ± 0.13 μu/ml
effect on cholesterol compared with PTU (in words) ([4]; THP i.p.): increases the cholesterol by a much smaller amount than PTU
Cholesterol [4, 11]: 57.5 ± 3.5 mg/dL
Triglyceride [4, 11]: 29.5 ± 3.5 mg/dL
Cholesterol [4, 12]: 58.5 ± 3.4 mg/dL
Triglyceride [4, 12]: 31.1 ± 5.4 mg/dL
Cholesterol [4, 13]: 56.5 ± 4.6 mg/dL
Triglyceride [4, 13]: 30.6 ± 5.1 mg/dL
effect on triglyceride compared with PTU (in words) ([4]; hyperthyroidism rats, THP i.p.): may reduce the triglyceride of the hyperthyroidism rats to be superior to PTU
FT3 ([5]; THP 2.5 mg/kg i.p., 14 days): 1.3 ± 0.1 ng/dL
FT4 ([5]; THP 2.5 mg/kg i.p., 14 days): 1.7 ± 0.5 ng/dL
T3 ([5]; THP 2.5 mg/kg i.p., 14 days): 56.8 ± 3.1 ng/dL
T4 ([5]; THP 2.5 mg/kg i.p., 14 days): 2.3 ± 0.5 µg/dL
TSH ([5]; THP 2.5 mg/kg i.p., 14 days): 1.9 ± 0.1 μu/ml
FT3 ([5]; THP 5.0 mg/kg i.p., 14 days): 1.2 ± 0.2 ng/dL
FT4 ([5]; THP 5.0 mg/kg i.p., 14 days): 2.1 ± 0.2 ng/dL
T3 ([5]; THP 5.0 mg/kg i.p., 14 days): 58.8 ± 3.7 ng/dL
T4 ([5]; THP 5.0 mg/kg i.p., 14 days): 2.5 ± 0.2 µg/dL
TSH ([5]; THP 5.0 mg/kg i.p., 14 days): 2.5 ± 0.4 μu/ml
FT4 ([5]; THP 10.0 mg/kg i.p., 14 days): 1.9 ± 1.5 ng/dL
T3 ([5]; THP 10.0 mg/kg i.p., 14 days): 49.1 ± 2.5 ng/dL
T4 ([5]; THP 10.0 mg/kg i.p., 14 days): 2.3 ± 0.3 µg/dL
TSH ([5]; THP 10.0 mg/kg i.p., 14 days): 1.9 ± 0.1 μu/ml
effect on T3, T4, FT3, FT4 and TSH (in words) ([5]; THP 2.5, 5.0 and 10 mg/kg i.p., 14 days): no influence on the concentrations of T3, T4, FT3, FT4 and TSH

CCCc1cc(=O)[nH]c(=S)[nH]1 [PTU, propylthiouracil]
changes in thyroid weight (in words) (rat thyroid): clearly shows an increase thyroid weight (P<0.001); also recorded: may increase thyroid weight
FT3 [1, 14]: 2.01 ± 0.25 ng/dL
FT4 [1, 14]: 3.24 ± 0.98 ng/dL
T3 [1, 14]: 30.25 ± 3.25 ng/dL
T4 [1, 14]: 1.95 ± 0.25 µg/dL
TSH [1, 14]: 3.98 ± 0.51 μu/ml
effect on T3, T4, FT3 and FT4 (in words) ([1]; hyperthyroidism rats, PTU 5 mg/kg, P.O.): may decrease the T3 (P<0.001), T4 (P<0.001), FT3 (P<0.001) and FT4 (P<0.001)
TSH ([1]; hyperthyroidism rats, PTU 5 mg/kg, P.O., increase from 0.99±0.11, P<0.001): 3.98 ± 0.51 µg/mL
effect on follicle cells and colloid (in words) [6]: expansion of follicle cells and colloidal loss
effect on thyroid weight (in words) [6]: increase of thyroid weight
pathologic section of the thyroid (in words) (thyroid follicle cells): remarkable expansion of the thyroid follicle cells and their colloidal loss; also recorded: will cause the formation of follicle cells, and loss of colloid
effect on T3, T4, FT3 and FT4 (in words) ([3]; PTU 5 mg/kg P.O.): will remarkably reduce T3 (P<0.001), T4 (P<0.001), FT3 (P<0.001) and FT4 (P<0.001)
TSH ([3]; PTU 5 mg/kg P.O., increase from 2.28±0.16 μu/ml, P<0.001): 4.54±0.01 μm/ml
FT3 ([3]; PTU 5 mg/kg p.o., 10 days): 0.37 ± 0.10 ng/dL
FT4 ([3]; PTU 5 mg/kg p.o., 10 days): 0.35 ± 0.09 ng/dL
T3 ([3]; PTU 5 mg/kg p.o., 10 days): 31.77 ± 3.10 µg/dL
T4 ([3]; PTU 5 mg/kg p.o., 10 days): 0.92 ± 0.14 µg/dL
TSH ([3]; PTU 5 mg/kg p.o., 10 days): 4.54 ± 0.41 μu/ml
effect on T3, T4, FT3 and FT4 (in words) ([7]; PTU 5 mg/kg): may remarkably reduce the concentrations of T3 (P <0.001), T4 (P<0.001), FT3 (P<0.01) and FT4 (P<0.001)
effect on TSH (in words) ([7]; PTU 5 mg/kg): remarkably increase TSH (P<0.01)
FT3 ([7]; PTU 5 mg/kg p.o.): 0.44 ± 0.02 ng/dL
FT4 ([7]; PTU 5 mg/kg p.o.): 0.47 ± 0.04 ng/dL
T3 ([7]; PTU 5 mg/kg p.o.): 17.92 ± 1.43 ng/dL
T4 ([7]; PTU 5 mg/kg p.o.): 1.11 ± 0.02 µg/dL
TSH ([7]; PTU 5 mg/kg p.o.): 3.98 ± 0.40 µg/mL
Cholesterol [4, 15]: 73.9 ± 3.2 mg/dL
T4 [4, 15]: 1.2 ± 0.2 µg/dL
Triglyceride [4, 15]: 35.6 ± 3.2 mg/dL
effect on T3, T4, FT3 and FT4 (in words) ([5]; PTU): reduces the T3, T4, FT3 and FT4
effect on TSH (in words) ([5]; PTU): increases the TSH concentration
effect on thyroid follicle cells and colloid (in words) ([5]; PTU): expand thyroid follicle cells and cause colloidal loss
FT3 ([5]; PTU 5.0 mg/kg): 0.4 ± 0.1 ng/dL
FT4 ([5]; PTU 5.0 mg/kg): 0.4 ± 0.1 ng/dL
T3 ([5]; PTU 5.0 mg/kg): 31.8 ± 3.1 ng/dL
T4 ([5]; PTU 5.0 mg/kg): 0.9 ± 0.1 µg/dL
TSH ([5]; PTU 5.0 mg/kg): 4.5 ± 0.4 μu/ml

From patent US5242926A, “Therapeutic composition for treating hyperthyroidism” (priority 1992, dated 1993)
